The source of these data is patent US20160310523A1, “USE OF OXYGEN-CONTAINING GAS SOURCE” (China Medical University, priority 2015, published 2016).

Molecules are shown by their SMILES.

In data set [1] the test system is blood-brain barrier. Briefly: Claustrophobia test in gas chamber, EBD extravasation. As to conditions: breathing 100% O2 vs normal air, P>0.05, FIG. 6A. Type of data set: in vivo, rats. An excerpt: FIGS. 6A and 6B show the effects of increased pO2 on the blood-brain barrier permeability. FIG. 6A is a quantitative diagram showing the detection amount of EBD in different districts of the brain of the rats in the claustrophobia test. FIG. 6B is a quantitative diagram showing the detection amount of EBD in the blood of the rats in the claustrophobia test. The rats are placed in gas chambers and allowed to breathe either normal air or 100% O2, and then performing the claustrophobia test.

The test system of data set [2] is blood-brain barrier. Briefly: Hypoventilation respiratory treatment, EBD extravasation. Type of data set: in vivo, rats. The settings on record: hypoventilation (50 BPM) with 100% O2; FIGS. 8A, 8B. The procedure:
A regional metabolic acidosis is caused by a local brain activity, but more global […] can also be induced by a hypoventilation. Given that increased blood pO2 substantially potentiates the blood-brain barrier opening by CO2/H^+, we further examine whether increasing pO2 in the rats subjected to the hypoventilation could open the blood-brain barrier in this example. The rats are injected with EBD first, and the rats are grouped and treated with a respiratory treatment by different levels of ventilation. Next, quantifying the EBD extravasation into different districts of the brain of the rats after the respiratory treatment. The respiratory treatment are a physiologically rate, the hypoventilation and a general ventilation, wherein a respiratory rate of the physiologically rate is 90 BPM (breath per minute) by using a tracheotomy, the respiratory rate of the general ventilation is 80 BPM, and the respiratory rate of the hypoventilation is 50 BPM. […]
The data of the respiratory treatment is shown in Table 4 as follows and FIG. 8A-8C. […] FIG. 8B is a quantitative diagram showing the detection amount of EBD in different districts of the brain and the blood of the rats in the hypoventilation. FIG. 8C is a quantitative diagram showing the detection amount of EBD in different districts of the brain and the blood of the rats increased a ventilation rate.

Data set [3] concerns blood-brain barrier. Briefly: Forced swim test, EBD extravasation after drug treatment. As to conditions: EIPA 5 mg/kg i.p.; zoniporide 20 mg/kg i.p.; FIG. 4C. Type of data set: in vivo, rats.
Source text: In a forced swim test, the rats are forced to swim in an opaque tank with limited spatial information, wherein a diameter, a height and a depth of the opaque tank is 43 cm, 54 cm and 29 cm, respectively.
To examine whether the NHE contributes to metabolic blood-brain barrier disruption during stressful activity, we administer either a vehicle (i.p.) or an NHE inhibitor (i.p.) to EBD-treated rats prior to forced swimming and quantify the EBD extravasation into the brain.
The nature of data set [4]: Inactivity (sedation) of rats during the forced swimming test. On the procedure:
Prostaglandin and serotonin are previously implicated in stress-mediated blood-brain barrier disruption. To examine whether prostaglandin and serotonin could contribute to opening of the blood-brain barrier, the rats are treated with indomethacin (10 mg/kg, i.p.) and cyproheptadine (15 mg/kg, i.p.) and then performing the forced swimming test, wherein indomethacincan can reduce the synthesis of prostaglandin and cyproheptadine competes with serotonin in that it acts on a postsynaptic receptor.

The mark [5] stands for this setting: indomethacin 10 mg/kg i.p., cyproheptadine 15 mg/kg i.p., EIPA 5 mg/kg i.p.

For `O=O` [100% O2], the “increase in blood-brain barrier permeability (EBD extravasation in motor cortex, caudate/putamen, hippocampus)” value in data set [1] is reported as “not significant”. Besides, the blood-brain barrier opening entry in data set [2] was “opens the blood-brain barrier”.

For `CCN(c1nc(N)c(C(=O)NC(=N)N)nc1Cl)C(C)C` [EIPA, Ethylisopropyl amiloride], in data set [3], the “EBD extravasation into the motor cortex during the forced swimming test” value was “attenuates”. Further, in data set [4] (setting [5]), the “number of the rats that remain inactive during the forced swimming test” value is 0/6 and the “sedation at the dose used” value was “not sedative”.

For `CN1CCC(=C2c3ccccc3C=Cc3ccccc32)CC1` [cyproheptadine], the “sedation at the dose used” value in data set [4] (rat, in vivo) is recorded as “marked sedation”.

Turning to `COc1ccc2c(c1)c(CC(=O)O)c(C)n2C(=O)c1ccc(Cl)cc1` [indomethacin], in data set [4] (rat, in vivo), the “sedation at the dose used” value is on record as “marked sedation”.

As to `N=C(N)NC(=O)c1cnn(-c2cccc3ncccc23)c1C1CC1` [zoniporide], the “EBD extravasation into the motor cortex during the forced swimming test” value in data set [3] is reported as “attenuates”.
